For two compounds, residual kinase activity results are on record in publication PMC11167047 (Cell Death Discovery, 2024).

Common to all, as to assay: kinome screen (33PanQinase)
Holding throughout (type): biochemical

The target of one test is T1, MEKK3 (Homo sapiens, UniProt Q99759).
T1 construct: purchased Reaction Biology Europe GmbH (formerly ProQinase)
T1 sequence (Q99759 1-626): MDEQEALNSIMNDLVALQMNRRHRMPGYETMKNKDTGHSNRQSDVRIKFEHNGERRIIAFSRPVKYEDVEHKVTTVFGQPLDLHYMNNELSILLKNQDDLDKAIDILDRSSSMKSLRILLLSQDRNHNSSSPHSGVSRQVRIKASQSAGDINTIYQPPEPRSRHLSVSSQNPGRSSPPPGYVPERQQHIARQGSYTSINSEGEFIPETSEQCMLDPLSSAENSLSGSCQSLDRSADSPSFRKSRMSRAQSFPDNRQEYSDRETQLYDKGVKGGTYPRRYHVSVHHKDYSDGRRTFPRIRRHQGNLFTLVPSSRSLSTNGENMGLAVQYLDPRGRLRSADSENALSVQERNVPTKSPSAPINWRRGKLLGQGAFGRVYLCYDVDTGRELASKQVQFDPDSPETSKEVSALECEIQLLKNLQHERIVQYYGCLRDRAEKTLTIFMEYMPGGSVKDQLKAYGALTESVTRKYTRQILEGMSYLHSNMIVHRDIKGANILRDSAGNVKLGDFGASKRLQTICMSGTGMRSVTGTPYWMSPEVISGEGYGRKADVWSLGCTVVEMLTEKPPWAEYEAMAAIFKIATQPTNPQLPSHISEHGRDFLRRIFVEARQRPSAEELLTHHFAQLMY
On the procedure: (§1) The Kinome Screening was performed by Reaction Biology Europe GmbH (http://reactionbiology.com; Freiburg i. Br., Germany).

In another test the target is T2, SGK3 (Homo sapiens, UniProt Q96BR1).
T2 construct: purchased Reaction Biology Europe GmbH (formerly ProQinase)
T2 sequence (Q96BR1 1-496): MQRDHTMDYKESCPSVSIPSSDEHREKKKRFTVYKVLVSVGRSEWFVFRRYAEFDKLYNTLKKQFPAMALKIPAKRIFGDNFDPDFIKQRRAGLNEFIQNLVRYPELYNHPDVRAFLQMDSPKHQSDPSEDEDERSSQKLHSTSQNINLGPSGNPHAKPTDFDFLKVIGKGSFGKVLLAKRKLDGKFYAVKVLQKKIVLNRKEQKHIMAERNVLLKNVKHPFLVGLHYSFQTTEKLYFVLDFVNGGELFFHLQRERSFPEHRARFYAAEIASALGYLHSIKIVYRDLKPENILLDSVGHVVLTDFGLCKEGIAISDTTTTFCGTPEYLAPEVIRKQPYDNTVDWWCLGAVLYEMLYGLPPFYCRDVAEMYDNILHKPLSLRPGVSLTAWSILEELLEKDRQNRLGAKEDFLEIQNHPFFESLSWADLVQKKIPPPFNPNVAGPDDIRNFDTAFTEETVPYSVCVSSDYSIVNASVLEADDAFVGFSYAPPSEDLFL
On the procedure:
as §1

Another test concerns the target T3, PRK2 (Homo sapiens, UniProt Q16513).
T3 construct: purchased Reaction Biology Europe GmbH (formerly ProQinase)
On the procedure:
as §1

For a further test, the target named is T4, MKK6 SDTD (Homo sapiens, UniProt P52564, S207D/T211D).
T4 construct: purchased Reaction Biology Europe GmbH (formerly ProQinase)
T4 sequence (P52564 1-334 S207D/T211D): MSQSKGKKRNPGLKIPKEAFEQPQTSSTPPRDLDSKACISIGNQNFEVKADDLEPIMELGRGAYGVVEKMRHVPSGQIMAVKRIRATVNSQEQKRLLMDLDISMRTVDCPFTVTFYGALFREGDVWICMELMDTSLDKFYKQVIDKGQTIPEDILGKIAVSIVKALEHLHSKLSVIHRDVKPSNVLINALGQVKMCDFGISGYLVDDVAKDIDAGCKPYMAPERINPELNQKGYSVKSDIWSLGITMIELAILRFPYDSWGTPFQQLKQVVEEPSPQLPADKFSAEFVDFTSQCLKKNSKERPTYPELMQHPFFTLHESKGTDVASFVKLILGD
On the procedure: as §1

The target of the next test is T5, CSF1R (Homo sapiens, UniProt P07333).
T5 construct: purchased Reaction Biology Europe GmbH (formerly ProQinase)
T5 sequence (P07333 20-972): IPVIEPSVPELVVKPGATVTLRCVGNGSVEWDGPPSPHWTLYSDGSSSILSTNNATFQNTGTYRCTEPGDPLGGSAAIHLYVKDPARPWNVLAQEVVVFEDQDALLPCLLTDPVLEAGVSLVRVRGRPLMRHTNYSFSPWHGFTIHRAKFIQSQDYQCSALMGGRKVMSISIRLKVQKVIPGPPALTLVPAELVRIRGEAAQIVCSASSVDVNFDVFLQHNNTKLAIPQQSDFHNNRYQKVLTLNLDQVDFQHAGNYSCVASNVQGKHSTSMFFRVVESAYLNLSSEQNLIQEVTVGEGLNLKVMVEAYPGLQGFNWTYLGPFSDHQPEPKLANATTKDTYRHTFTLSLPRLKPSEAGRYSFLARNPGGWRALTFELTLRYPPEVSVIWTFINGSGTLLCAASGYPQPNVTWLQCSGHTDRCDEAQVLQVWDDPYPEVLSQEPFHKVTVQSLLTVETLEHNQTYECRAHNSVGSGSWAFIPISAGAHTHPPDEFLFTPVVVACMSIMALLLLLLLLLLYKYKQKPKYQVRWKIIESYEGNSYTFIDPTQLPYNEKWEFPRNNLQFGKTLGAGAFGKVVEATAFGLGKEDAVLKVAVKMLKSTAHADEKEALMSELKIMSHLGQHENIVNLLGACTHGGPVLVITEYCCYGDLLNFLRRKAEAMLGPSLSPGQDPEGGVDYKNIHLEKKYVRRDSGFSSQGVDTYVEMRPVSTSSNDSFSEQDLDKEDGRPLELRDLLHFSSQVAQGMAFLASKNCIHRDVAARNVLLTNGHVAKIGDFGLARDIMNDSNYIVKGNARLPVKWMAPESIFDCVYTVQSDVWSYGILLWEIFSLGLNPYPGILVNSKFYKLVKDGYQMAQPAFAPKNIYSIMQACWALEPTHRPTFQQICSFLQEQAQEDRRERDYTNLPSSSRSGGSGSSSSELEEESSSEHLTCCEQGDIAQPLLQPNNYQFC
How it is done: as §1

A further test addresses T6, FGR (Homo sapiens, UniProt P09769).
T6 construct: purchased Reaction Biology Europe GmbH (formerly ProQinase)
On the procedure: as §1

The target in a further test is T7, NEK4 (Homo sapiens, UniProt P51957).
T7 construct: purchased Reaction Biology Europe GmbH (formerly ProQinase)
T7 sequence (P51957 whole entry): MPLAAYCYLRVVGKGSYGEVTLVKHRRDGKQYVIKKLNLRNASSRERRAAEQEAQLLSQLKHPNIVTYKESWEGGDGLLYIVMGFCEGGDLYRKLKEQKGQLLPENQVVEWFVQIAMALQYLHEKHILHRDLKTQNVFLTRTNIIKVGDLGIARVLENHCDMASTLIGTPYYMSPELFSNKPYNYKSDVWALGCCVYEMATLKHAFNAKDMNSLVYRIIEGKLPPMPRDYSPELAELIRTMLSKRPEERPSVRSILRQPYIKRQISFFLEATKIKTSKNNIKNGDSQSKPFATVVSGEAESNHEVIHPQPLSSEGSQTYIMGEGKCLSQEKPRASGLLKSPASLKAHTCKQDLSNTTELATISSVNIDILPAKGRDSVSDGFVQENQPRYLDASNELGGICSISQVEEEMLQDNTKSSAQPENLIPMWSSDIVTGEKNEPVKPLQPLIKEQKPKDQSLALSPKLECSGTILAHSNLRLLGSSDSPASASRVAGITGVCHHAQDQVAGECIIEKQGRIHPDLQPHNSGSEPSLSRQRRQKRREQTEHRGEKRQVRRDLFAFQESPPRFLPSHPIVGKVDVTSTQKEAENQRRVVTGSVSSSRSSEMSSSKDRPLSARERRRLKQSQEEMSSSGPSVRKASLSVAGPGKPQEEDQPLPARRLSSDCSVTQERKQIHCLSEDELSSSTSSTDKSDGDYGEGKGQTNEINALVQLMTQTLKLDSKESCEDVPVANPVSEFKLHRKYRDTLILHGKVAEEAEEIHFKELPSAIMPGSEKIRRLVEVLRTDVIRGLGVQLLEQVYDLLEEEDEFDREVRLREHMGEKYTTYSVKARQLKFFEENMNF
How it is done:
as §1

The target in another test is T8, CDK4/CycD3 (Homo sapiens, UniProt P11802).
T8 construct: purchased Reaction Biology Europe GmbH (formerly ProQinase)
T8 sequence (P11802 whole entry): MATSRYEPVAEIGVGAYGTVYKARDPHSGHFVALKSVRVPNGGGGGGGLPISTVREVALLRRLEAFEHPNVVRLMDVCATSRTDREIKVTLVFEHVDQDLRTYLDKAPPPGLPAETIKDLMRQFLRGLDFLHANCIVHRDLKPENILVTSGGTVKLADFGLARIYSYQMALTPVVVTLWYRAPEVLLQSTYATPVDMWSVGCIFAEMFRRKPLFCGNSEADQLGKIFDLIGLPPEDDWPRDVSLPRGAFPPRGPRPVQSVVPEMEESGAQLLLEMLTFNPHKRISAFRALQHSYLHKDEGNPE
T8 sequence (P30281 whole entry partner): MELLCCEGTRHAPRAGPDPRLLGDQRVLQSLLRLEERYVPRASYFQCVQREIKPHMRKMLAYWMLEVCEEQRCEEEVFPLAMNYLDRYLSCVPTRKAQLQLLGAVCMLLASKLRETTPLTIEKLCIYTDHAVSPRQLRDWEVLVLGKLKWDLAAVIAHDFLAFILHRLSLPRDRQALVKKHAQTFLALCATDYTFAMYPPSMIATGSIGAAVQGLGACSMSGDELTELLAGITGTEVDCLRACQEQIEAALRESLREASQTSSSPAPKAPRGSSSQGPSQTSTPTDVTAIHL
On the procedure: as §1

Another test deals with T9, IRAK4 (Homo sapiens, UniProt Q9NWZ3).
T9 construct: purchased Reaction Biology Europe GmbH (formerly ProQinase)
T9 sequence (Q9NWZ3 1-460): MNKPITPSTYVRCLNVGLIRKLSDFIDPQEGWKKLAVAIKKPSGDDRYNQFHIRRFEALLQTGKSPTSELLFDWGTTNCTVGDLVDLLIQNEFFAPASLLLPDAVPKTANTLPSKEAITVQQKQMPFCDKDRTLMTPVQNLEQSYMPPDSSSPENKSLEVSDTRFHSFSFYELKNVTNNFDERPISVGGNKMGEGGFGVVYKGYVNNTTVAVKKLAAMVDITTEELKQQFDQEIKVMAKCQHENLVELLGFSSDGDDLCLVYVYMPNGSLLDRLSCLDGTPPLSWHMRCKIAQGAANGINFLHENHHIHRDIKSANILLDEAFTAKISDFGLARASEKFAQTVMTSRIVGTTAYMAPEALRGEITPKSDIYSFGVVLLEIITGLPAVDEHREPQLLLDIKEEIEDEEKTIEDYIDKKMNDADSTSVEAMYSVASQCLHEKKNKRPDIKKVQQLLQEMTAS
How it is done: as §1

The next test has as its target T10, MTOR (Homo sapiens, UniProt P42345).
T10 construct: purchased Reaction Biology Europe GmbH (formerly ProQinase)
How it is done:
as §1

For the next test, the target named is T11, SIK2 (Homo sapiens, UniProt Q9H0K1).
T11 construct: purchased Reaction Biology Europe GmbH (formerly ProQinase)
T11 sequence (Q9H0K1 whole entry): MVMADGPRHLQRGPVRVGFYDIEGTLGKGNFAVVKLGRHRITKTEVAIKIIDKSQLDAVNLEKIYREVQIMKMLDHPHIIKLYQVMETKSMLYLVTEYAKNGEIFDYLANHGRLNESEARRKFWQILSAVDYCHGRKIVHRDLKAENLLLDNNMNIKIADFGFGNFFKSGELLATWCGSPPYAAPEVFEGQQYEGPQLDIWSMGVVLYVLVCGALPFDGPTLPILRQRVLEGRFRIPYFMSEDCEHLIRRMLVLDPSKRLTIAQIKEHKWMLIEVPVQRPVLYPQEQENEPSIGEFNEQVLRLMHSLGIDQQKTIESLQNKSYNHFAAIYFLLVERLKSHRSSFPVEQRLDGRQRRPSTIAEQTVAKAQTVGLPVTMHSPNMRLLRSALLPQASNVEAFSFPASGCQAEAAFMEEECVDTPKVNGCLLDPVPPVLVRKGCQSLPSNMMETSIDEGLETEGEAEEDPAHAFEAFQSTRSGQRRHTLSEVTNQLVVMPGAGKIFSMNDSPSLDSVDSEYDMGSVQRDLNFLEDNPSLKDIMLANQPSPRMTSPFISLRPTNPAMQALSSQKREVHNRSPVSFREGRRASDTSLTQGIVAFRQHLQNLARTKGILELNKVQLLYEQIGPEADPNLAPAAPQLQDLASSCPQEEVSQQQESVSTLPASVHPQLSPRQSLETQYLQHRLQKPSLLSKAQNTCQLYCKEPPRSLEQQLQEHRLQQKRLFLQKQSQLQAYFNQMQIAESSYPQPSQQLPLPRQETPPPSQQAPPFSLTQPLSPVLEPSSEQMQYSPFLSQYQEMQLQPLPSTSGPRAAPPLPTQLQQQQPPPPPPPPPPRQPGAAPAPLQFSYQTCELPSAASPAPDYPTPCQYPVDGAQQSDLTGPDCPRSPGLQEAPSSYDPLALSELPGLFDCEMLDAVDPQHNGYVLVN
On the procedure: as §1

SMILES strings stand for the structures.

T6 sequence (P09769 whole entry): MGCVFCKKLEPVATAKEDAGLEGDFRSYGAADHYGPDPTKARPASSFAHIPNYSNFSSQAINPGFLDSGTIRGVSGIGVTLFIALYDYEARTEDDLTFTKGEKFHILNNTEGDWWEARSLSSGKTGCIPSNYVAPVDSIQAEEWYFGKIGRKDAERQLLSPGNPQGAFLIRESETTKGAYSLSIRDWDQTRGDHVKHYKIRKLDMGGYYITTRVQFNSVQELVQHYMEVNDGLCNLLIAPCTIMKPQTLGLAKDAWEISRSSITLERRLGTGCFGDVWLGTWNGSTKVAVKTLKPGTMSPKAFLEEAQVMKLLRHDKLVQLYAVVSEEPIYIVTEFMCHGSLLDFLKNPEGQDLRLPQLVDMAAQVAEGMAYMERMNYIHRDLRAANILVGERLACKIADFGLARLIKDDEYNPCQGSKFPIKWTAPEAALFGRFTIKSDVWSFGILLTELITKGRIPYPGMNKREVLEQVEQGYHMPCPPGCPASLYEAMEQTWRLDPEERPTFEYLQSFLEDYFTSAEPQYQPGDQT
T3 sequence (Q16513 whole entry): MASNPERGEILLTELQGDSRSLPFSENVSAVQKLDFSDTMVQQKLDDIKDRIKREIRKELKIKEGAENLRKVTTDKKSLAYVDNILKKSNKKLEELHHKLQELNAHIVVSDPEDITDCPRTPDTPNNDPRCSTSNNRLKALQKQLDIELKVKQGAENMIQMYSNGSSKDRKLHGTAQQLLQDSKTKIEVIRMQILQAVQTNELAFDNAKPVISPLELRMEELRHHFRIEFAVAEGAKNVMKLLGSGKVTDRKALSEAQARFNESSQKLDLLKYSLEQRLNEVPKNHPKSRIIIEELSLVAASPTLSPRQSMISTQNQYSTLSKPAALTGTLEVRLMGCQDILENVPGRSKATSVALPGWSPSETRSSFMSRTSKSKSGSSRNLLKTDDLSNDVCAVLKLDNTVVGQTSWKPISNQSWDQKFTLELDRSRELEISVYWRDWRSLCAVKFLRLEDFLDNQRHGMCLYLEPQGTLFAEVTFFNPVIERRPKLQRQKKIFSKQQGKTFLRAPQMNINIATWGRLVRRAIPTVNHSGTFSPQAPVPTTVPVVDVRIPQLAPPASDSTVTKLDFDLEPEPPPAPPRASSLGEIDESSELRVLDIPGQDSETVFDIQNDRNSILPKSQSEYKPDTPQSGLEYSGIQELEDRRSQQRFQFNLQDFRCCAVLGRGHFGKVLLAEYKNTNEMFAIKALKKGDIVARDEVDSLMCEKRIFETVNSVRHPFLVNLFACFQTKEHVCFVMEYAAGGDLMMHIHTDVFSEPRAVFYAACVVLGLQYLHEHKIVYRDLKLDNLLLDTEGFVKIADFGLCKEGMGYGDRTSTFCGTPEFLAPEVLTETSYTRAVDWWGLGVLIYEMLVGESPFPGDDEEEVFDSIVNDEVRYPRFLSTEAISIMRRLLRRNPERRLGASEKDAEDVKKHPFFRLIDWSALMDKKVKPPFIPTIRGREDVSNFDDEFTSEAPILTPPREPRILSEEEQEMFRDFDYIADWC

With `COc1ccnc2[nH]cc(-c3cc(N)nc(N)c3)c12` [meriolin 16], the residual kinase activity at MEKK3 (0.03 µM) is reported as 106 % of control; at MEKK3 (0.3 µM), 90 % of control; on SGK3 (0.03 µM) it was 94 % of control; at SGK3 (0.3 µM) it was 84 % of control; on PRK2 (0.03 µM) it was 90 % of control; at PRK2 (0.3 µM), 42 % of control. For the same compound, the residual kinase activity on MKK6 SDTD (0.03 µM) is 77 % of control; on MKK6 SDTD (0.3 µM), 87 % of control; on CSF1R (0.03 µM), 90 % of control; on CSF1R (0.3 µM) it was 88 % of control; on FGR (0.03 µM), 111 % of control; at FGR (0.3 µM), 105 % of control. Further, the residual kinase activity at NEK4 (0.03 µM) is 89 % of control; on NEK4 (0.3 µM) it was 47 % of control; on CDK4/CycD3 (0.03 µM), 95 % of control; on CDK4/CycD3 (0.3 µM), 51 % of control; at IRAK4 (0.03 µM) it was 83 % of control; on IRAK4 (0.3 µM), 50 % of control. Also, the residual kinase activity at MTOR (0.03 µM) was 91 % of control; at MTOR (0.3 µM), 105 % of control; at SIK2 (0.03 µM), 96 % of control; on SIK2 (0.3 µM) it was 102 % of control.
Take `c1ccc(CNc2cc(-c3c[nH]c4ncccc34)ccn2)cc1` [meriolin 36]: the residual kinase activity is recorded as 66 % of control at MEKK3 (0.3 µM); 26 % of control at MEKK3 (3 µM); 81 % of control at SGK3 (0.3 µM); 27 % of control on SGK3 (3 µM); 8 % of control on PRK2 (0.3 µM); 0 % of control at PRK2 (3 µM). In addition, the residual kinase activity was 63 % of control on MKK6 SDTD (0.3 µM); 30 % of control at MKK6 SDTD (3 µM); 33 % of control on CSF1R (0.3 µM); 14 % of control at CSF1R (3 µM); 40 % of control at FGR (0.3 µM); 6 % of control on FGR (3 µM). For the same compound, the residual kinase activity at NEK4 (0.3 µM) is recorded as 84 % of control; at NEK4 (3 µM), 37 % of control; at CDK4/CycD3 (0.3 µM) it was 34 % of control; on CDK4/CycD3 (3 µM), 6 % of control; on IRAK4 (0.3 µM) it was 14 % of control; on IRAK4 (3 µM) it was 2 % of control. For the same compound, the residual kinase activity at MTOR (0.3 µM) was 78 % of control; at MTOR (3 µM), 24 % of control; on SIK2 (0.3 µM), 86 % of control; on SIK2 (3 µM), 27 % of control.
